Positions of bridges follow the written chain, without caps; N, C: chain ends. Non-standard residues stand in square brackets, D forms with d. Residues, ends and D or L forms follow the SMILES beside them. R8 = C=CCCCCCC[C@@](C)(N)C(=O)O; S5 = C=CCCC[C@](C)(N)C(=O)O
How the values were obtained:
[1] = circular dichroism; details: 10 mM phosphate buffer; pH 7.4; ns °C; 100 uM
[2] = tested on: E. coli; format: cell-based, Escherichia coli; details: Table 1; microbroth dilution, refined MHB, 20-24 hours at 37° C.
Experimental: Antimicrobial Activity Assay The following microbroth dilution protocol was adapted to determine the MIC of each peptide. First, Mueller-Hinton broth (MHB) was passed through an anion exchange column to remove polyanionic species and generate refined MHB. This refined broth was then used in the standard microbroth dilution protocol devised by Hancock et al. for 96 well plates. […] Briefly, bacterial cells were grown overnight in refined MHB at 37° C. and then diluted and allowed to grow again for several hours. Serial dilutions of peptide stocks in water (10 μl) were prepared using clear round-bottom polypropylene 96-well plates. Then 90 μl of bacteria in refined MHB was added to give a final inoculum of 5×10^5 CFU/ml. The plates were then covered with porous tape to reduce evaporation, and incubated for 20-24 hours at 37° C.

[3] = tested on: human red blood cells (RBCs); format: cell-based; details: red cells of human, 1 h, 50
From the text: One of the key obstacles that have long impeded the use of AMPs in systemic infections such as sepsis is their tendency to lyse human cells, such as red blood cells (RBCs). Thus, it is critical to minimize hemolytic activity as much as possible to achieve a therapeutic window. […] Of note, in those circumstances where hydrocarbon staples increase hemolytic activity due to increasing hydrophobicity, the alkene moiety can be modified, e.g., by dihydroxylation, to install hydrophilic residues and potentially mitigate hemolysis.
Hemolytic Activity Assay For the determination of hemolytic activity, the following protocol was applied: human blood samples were centrifuged to isolate red blood cells (RBCs), which were then washed and suspended in phosphate-buffered saline to yield a 1% (v/v) suspension. This suspension was then added to serial dilutions of peptide stocks in water in clear round-bottom polypropylene 96-well plates and the plates incubated for 1 hour at 37° C. After incubation, the plates were centrifuged and the supernatant isolated to determine the amount of hemoglobin released using a spectrophotometer (570 nm). The minimum hemolytic concentration (MHC) was determined by assessing the peptide concentration at which there was less than 1% hemoglobin release.

SMILES	helicity [1]	Antimicrobial Activity NIC (μg/ml) E. coli [2]	% Hemolysis at 50 μg/ml [3]
CC(C)C[C@H](NC(=O)CNC(=O)[C@H](C)NC(=O)[C@H](CCCNC(=N)N)NC(=O)[C@H](CO)NC(=O)[C@H](CO)NC(=O)[C@H](CCCNC(=N)N)NC(=O)[C@@H](N)[C@@H](C)O)C(=O)N[C@@H](CCC(N)=O)C(=O)N[C@@H](Cc1c[nH]c2ccccc12)C(=O)N1CCC[C@H]1C(=O)N[C@H](C(=O)NCC(=O)N[C@@H](CCCNC(=N)N)C(=O)N[C@H](C(=O)N[C@@H](Cc1c[nH]cn1)C(=O)N[C@@H](CCCNC(=N)N)C(=O)N[C@@H](CC(C)C)C(=O)N[C@@H](CC(C)C)C(=O)N[C@@H](CCCNC(=N)N)C(=O)N[C@@H](CCCCN)C(N)=O)C(C)C)C(C)C	0%	–	–
CC(C)C[C@H](NC(=O)CNC(=O)[C@H](C)NC(=O)[C@H](CCCNC(=N)N)NC(=O)[C@H](CO)NC(=O)[C@H](CO)NC(=O)[C@H](CCCNC(=N)N)NC(=O)[C@@H](N)[C@@H](C)O)C(=O)N[C@@H](CCC(N)=O)C(=O)N[C@@H](Cc1c[nH]c2ccccc12)C(=O)N1CCC[C@H]1C(=O)N[C@H](C(=O)NCC(=O)N[C@@H](CCCNC(=N)N)C(=O)N[C@H](C(=O)N[C@@H](Cc1c[nH]cn1)C(=O)N[C@@]1(C)CCCC=CCCC[C@@](C)(C(N)=O)NC(=O)[C@H](CCCNC(=N)N)NC(=O)[C@H](CC(C)C)NC(=O)[C@H](CC(C)C)NC1=O)C(C)C)C(C)C [BFStap(i + 4)1] (H-TRSSRAGLQWPVGRVH[S5]LLR[S5]-NH2; staple 17-21; N-terminus and C-terminus assumed)	–	50.0 µg/mL	2.2%
CC(C)C[C@H](NC(=O)CNC(=O)[C@H](C)NC(=O)[C@H](CCCNC(=N)N)NC(=O)[C@H](CO)NC(=O)[C@H](CO)NC(=O)[C@H](CCCNC(=N)N)NC(=O)[C@@H](N)[C@@H](C)O)C(=O)N[C@@H](CCC(N)=O)C(=O)N[C@@H](Cc1c[nH]c2ccccc12)C(=O)N1CCC[C@H]1C(=O)N[C@H](C(=O)NCC(=O)N[C@@H](CCCNC(=N)N)C(=O)N[C@H](C(=O)N[C@@]1(C)CCCC=CCCC[C@@](C)(C(=O)N[C@@H](CCCCN)C(N)=O)NC(=O)[C@H](CC(C)C)NC(=O)[C@H](CC(C)C)NC(=O)[C@H](CCCNC(=N)N)NC1=O)C(C)C)C(C)C [BFStap(i + 4)2] (H-TRSSRAGLQWPVGRV[S5]RLL[S5]K-NH2; staple 16-20)	3.2%	–	12.6%
CC(C)C[C@H](NC(=O)CNC(=O)[C@H](C)NC(=O)[C@H](CCCNC(=N)N)NC(=O)[C@H](CO)NC(=O)[C@H](CO)NC(=O)[C@H](CCCNC(=N)N)NC(=O)[C@@H](N)[C@@H](C)O)C(=O)N[C@@H](CCC(N)=O)C(=O)N[C@@H](Cc1c[nH]c2ccccc12)C(=O)N1CCC[C@H]1C(=O)N[C@H](C(=O)NCC(=O)N[C@@H](CCCNC(=N)N)C(=O)N[C@@]1(C)CCCC=CCCC[C@@](C)(C(=O)N[C@@H](CCCNC(=N)N)C(=O)N[C@@H](CCCCN)C(N)=O)NC(=O)[C@H](CC(C)C)NC(=O)[C@H](CCCNC(=N)N)NC(=O)[C@H](Cc2c[nH]cn2)NC1=O)C(C)C [BFStap(i + 4)3] (H-TRSSRAGLQWPVGR[S5]HRL[S5]RK-NH2; staple 15-19; N-terminus and C-terminus assumed)	4.3%	25.0 µg/mL	2.9%
CC(C)C[C@H](NC(=O)CNC(=O)[C@H](C)NC(=O)[C@H](CCCNC(=N)N)NC(=O)[C@H](CO)NC(=O)[C@H](CO)NC(=O)[C@H](CCCNC(=N)N)NC(=O)[C@@H](N)[C@@H](C)O)C(=O)N[C@@H](CCC(N)=O)C(=O)N[C@@H](Cc1c[nH]c2ccccc12)C(=O)N1CCC[C@H]1C(=O)N[C@H](C(=O)NCC(=O)N[C@@]1(C)CCCC=CCCC[C@@](C)(C(=O)N[C@@H](CC(C)C)C(=O)N[C@@H](CCCNC(=N)N)C(=O)N[C@@H](CCCCN)C(N)=O)NC(=O)[C@H](CCCNC(=N)N)NC(=O)[C@H](Cc2c[nH]cn2)NC(=O)[C@H](C(C)C)NC1=O)C(C)C [BFStap(i + 4)4] (H-TRSSRAGLQWPVG[S5]VHR[S5]LRK-NH2; staple 14-18; N-terminus and C-terminus assumed)	6%	29.2 µg/mL	2.9%
CC(C)C[C@H](NC(=O)CNC(=O)[C@H](C)NC(=O)[C@H](CCCNC(=N)N)NC(=O)[C@H](CO)NC(=O)[C@H](CO)NC(=O)[C@H](CCCNC(=N)N)NC(=O)[C@@H](N)[C@@H](C)O)C(=O)N[C@@H](CCC(N)=O)C(=O)N[C@@H](Cc1c[nH]c2ccccc12)C(=O)N1CCC[C@H]1C(=O)N[C@H](C(=O)N[C@@]1(C)CCCC=CCCC[C@@](C)(C(=O)N[C@@H](CC(C)C)C(=O)N[C@@H](CC(C)C)C(=O)N[C@@H](CCCNC(=N)N)C(=O)N[C@@H](CCCCN)C(N)=O)NC(=O)[C@H](Cc2c[nH]cn2)NC(=O)[C@H](C(C)C)NC(=O)[C@H](CCCNC(=N)N)NC1=O)C(C)C [BFStap(i + 4)5] (H-TRSSRAGLQWPV[S5]RVH[S5]LLRK-NH2; staple 13-17; N-terminus and C-terminus assumed)	8.8%	66.7 µg/mL	3.0%
CC(C)C[C@H](NC(=O)CNC(=O)[C@H](C)NC(=O)[C@H](CCCNC(=N)N)NC(=O)[C@H](CO)NC(=O)[C@H](CO)NC(=O)[C@H](CCCNC(=N)N)NC(=O)[C@@H](N)[C@@H](C)O)C(=O)N[C@@H](CCC(N)=O)C(=O)N[C@@H](Cc1c[nH]c2ccccc12)C(=O)N1CCC[C@H]1C(=O)N[C@@]1(C)CCCC=CCCC[C@@](C)(C(=O)N[C@@H](CCCNC(=N)N)C(=O)N[C@@H](CC(C)C)C(=O)N[C@@H](CC(C)C)C(=O)N[C@@H](CCCNC(=N)N)C(=O)N[C@@H](CCCCN)C(N)=O)NC(=O)[C@H](C(C)C)NC(=O)[C@H](CCCNC(=N)N)NC(=O)CNC1=O [BFStap(i + 4)6] (H-TRSSRAGLQWP[S5]GRV[S5]RLLRK-NH2; staple 12-16)	–	–	10.0%
CC(C)C[C@H](NC(=O)CNC(=O)[C@H](C)NC(=O)[C@H](CCCNC(=N)N)NC(=O)[C@H](CO)NC(=O)[C@H](CO)NC(=O)[C@H](CCCNC(=N)N)NC(=O)[C@@H](N)[C@@H](C)O)C(=O)N[C@@H](CCC(N)=O)C(=O)N[C@@H](Cc1c[nH]c2ccccc12)C(=O)N1CCC[C@H]1C(=O)N[C@]1(C)CCCCCCC=CCCC[C@@](C)(C(=O)N[C@@H](CCCNC(=N)N)C(=O)N[C@@H](CCCCN)C(N)=O)NC(=O)[C@H](CC(C)C)NC(=O)[C@H](CCCNC(=N)N)NC(=O)[C@H](Cc2c[nH]cn2)NC(=O)[C@H](C(C)C)NC(=O)[C@H](CCCNC(=N)N)NC(=O)CNC1=O [BFStap(i + 7)3] (H-TRSSRAGLQWP[R8]GRVHRL[S5]RK-NH2; staple 12-19; N-terminus and C-terminus assumed)	–	29.2 µg/mL	6.1%
CC(C)C[C@H](NC(=O)[C@H](CC(C)C)NC(=O)[C@H](CCCNC(=N)N)NC(=O)[C@H](Cc1c[nH]cn1)NC(=O)[C@]1(C)CCCC=CCCCCCC[C@@](C)(NC(=O)CNC(=O)[C@H](C)NC(=O)[C@H](CCCNC(=N)N)NC(=O)[C@H](CO)NC(=O)[C@H](CO)NC(=O)[C@H](CCCNC(=N)N)NC(=O)[C@@H](N)[C@@H](C)O)C(=O)N[C@@H](CCC(N)=O)C(=O)N[C@@H](Cc2c[nH]c3ccccc23)C(=O)N2CCC[C@H]2C(=O)N[C@@H](C(C)C)C(=O)NCC(=O)N[C@@H](CCCNC(=N)N)C(=O)N1)C(=O)N[C@@H](CCCNC(=N)N)C(=O)N[C@@H](CCCCN)C(N)=O [BFStap(i + 7)5] (H-TRSSRAG[R8]QWPVGR[S5]HRLLRK-NH2; staple 8-15; N-terminus and C-terminus assumed)	–	52.1 µg/mL	6.8%
CC(C)C[C@@H]1NC(=O)CNC(=O)[C@H](C)NC(=O)[C@](C)(NC(=O)[C@H](CO)NC(=O)[C@H](CO)NC(=O)[C@H](CCCNC(=N)N)NC(=O)[C@@H](N)[C@@H](C)O)CCCCCCC=CCCC[C@@](C)(C(=O)NCC(=O)N[C@@H](CCCNC(=N)N)C(=O)N[C@H](C(=O)N[C@@H](Cc2c[nH]cn2)C(=O)N[C@@H](CCCNC(=N)N)C(=O)N[C@@H](CC(C)C)C(=O)N[C@@H](CC(C)C)C(=O)N[C@@H](CCCNC(=N)N)C(=O)N[C@@H](CCCCN)C(N)=O)C(C)C)NC(=O)[C@@H]2CCCN2C(=O)[C@H](Cc2c[nH]c3ccccc23)NC(=O)[C@H](CCC(N)=O)NC1=O [BFStap(i + 7)8] (H-TRSS[R8]AGLQWP[S5]GRVHRLLRK-NH2; staple 5-12)	0%	–	3.9%
CC(C)C[C@H](NC(=O)CNC(=O)[C@H](C)NC(=O)[C@H](CCCNC(=N)N)NC(=O)[C@H](CO)NC(=O)[C@H](CO)NC(=O)[C@H](CCCNC(=N)N)NC(=O)[C@@H](N)[C@@H](C)O)C(=O)N[C@@H](CCC(N)=O)C(=O)N[C@@H](Cc1c[nH]c2ccccc12)C(=O)N1CCC[C@H]1C(=O)N[C@H](C(=O)NCC(=O)N[C@@H](CCCNC(=N)N)C(=O)N[C@H](C(=O)N[C@@H](Cc1cnc[nH]1)C(=O)N[C@@H](CCCNC(=N)N)C(=O)N[C@@H](CC(C)C)C(=O)N[C@@H](CC(C)C)C(=O)N[C@@H](CCCNC(=N)N)C(=O)N[C@@H](CCCCN)C(=O)O)C(C)C)C(C)C [Buforin II(F10W), reference compound]	–	>800 µg/mL	2.7%

Reference: US12391733B2, “Stapled intracellular-targeting antimicrobial peptides to treat infection” (priority 2016, dated 2025)
